This is an account of results in ChEMBL document CHEMBL1201862, “PubChem BioAssay data set” (2004).

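Assay format: 96-well plates, 48-hour exposure. GI50 is the concentration that inhibits growth by half.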 Activity calls are given as the source filed them. Cut-off read from the data, not from the text of the source: active = GI50 up to about 1.1 µM and inactive = higher.

The GI50 is the concentration at which growth is held to half of that of the control.

Test systems include 786-0; BT-549; COLO 205; DU-145; HCC 2998; HOP-92; HT-29; Hs-578T; MDA-MB-231; MDA-MB-435; NCI-H226; NCI-H460; OVCAR-5; OVCAR-8; RXF 393; SNB-19; SW-620; TK-10; U-251.
What all share (assay): DTP human tumour cell line panel, 48 h

With `CC(C)C1CCC(=O)CC1CCCCC1CC(=O)CC1O[Si](C)(C)C(C)(C)C` (stereo not given), the GI50 with 786-0 was 3.89 µM (inactive); in the assay with BT-549, 4.25 µM (inactive); in the assay on COLO 205, 4.21 µM (inactive); in the assay with DU-145, 17 µM (inactive); with HCC 2998, 7.03 µM (inactive); in the assay with HOP-92, 3.3 µM (inactive). For the same molecule, the GI50 with HT-29 was 3 µM (inactive); in the assay with Hs-578T, 3.03 µM (inactive); with MDA-MB-231, 14.6 µM (inactive); with MDA-MB-435, 2.95 µM (inactive); with NCI-H226, 3.9 µM (inactive); with NCI-H460 it was 7.46 µM (inactive). The GI50 was 11.1 µM (inactive) with OVCAR-5; 3.83 µM (inactive) with OVCAR-8; 4.67 µM (inactive) in the assay on RXF 393; 3.98 µM (inactive) in the assay on SNB-19; 4.91 µM (inactive) in the assay with SW-620; 10.5 µM (inactive) in the assay with TK-10. The GI50 with U-251 was 2.32 µM (inactive).

With `CSc1ccc(NC(=O)C2CCCCC2C(=O)O)cc1` (stereo not given), the GI50 in the assay on 786-0, in the assay on BT-549, with COLO 205, in the assay with DU-145, in the assay with HCC 2998 and in the assay with HOP-92 was > 100 µM (inactive) each time. The GI50 in the assay on HT-29, in the assay on Hs-578T, in the assay with MDA-MB-231, in the assay on MDA-MB-435, with NCI-H226 and in the assay with NCI-H460 was > 100 µM (inactive) in each case. Besides, the GI50 in the assay with OVCAR-5, in the assay on OVCAR-8, in the assay with RXF 393, in the assay with SNB-19, with SW-620 and with TK-10 was > 100 µM (inactive) in each case. The GI50 with U-251 is > 100 µM (inactive).

Regarding `C=CCNC1=C2C[C@@H](C)C[C@@H](OC)C(OC(=O)CCCN(C)C)[C@H](C)/C=C(\C)[C@@H](OC(N)=O)[C@H](OC)/C=C\C=C(/C)C(=O)NC(=CC1=O)C2=O` (stereo not given in full), the GI50 with 786-0 was 12.4 µM (inactive); with BT-549, 13.4 µM (inactive); in the assay on COLO 205, 2.82 µM (inactive); with DU-145, 5.02 µM (inactive); with HCC 2998, 4.6 µM (inactive); with HOP-92 it was 17.7 µM (inactive). In addition, the GI50 is 2.7 µM (inactive) in the assay on HT-29; 17.5 µM (inactive) in the assay with Hs-578T; 5.45 µM (inactive) with MDA-MB-231; 10.6 µM (inactive) in the assay on MDA-MB-435; 14.6 µM (inactive) in the assay with NCI-H226; 2.99 µM (inactive) in the assay with NCI-H460. Further, the GI50 in the assay with OVCAR-5 was 15.2 µM (inactive); with OVCAR-8, 4.1 µM (inactive); in the assay on RXF 393, 3.98 µM (inactive); in the assay on SNB-19 it was 13.8 µM (inactive); with SW-620, 4.48 µM (inactive); in the assay with TK-10, 11.6 µM (inactive). For the same molecule, in the assay with U-251, the GI50 is 10.6 µM (inactive).

For `O=[N+]([O-])C(=C/C1CCCCC1)/C(=C\C1CCCCC1)[N+](=O)[O-]`, the GI50 is 1.84 µM (inactive) in the assay on 786-0; 5.42 µM (inactive) in the assay on BT-549; 3.21 µM (inactive) in the assay with COLO 205; 13.3 µM (inactive) in the assay with DU-145; 20.2 µM (inactive) in the assay with HCC 2998; 7.05 µM (inactive) in the assay on HOP-92. The GI50 with HT-29 was 5.48 µM (inactive); in the assay on Hs-578T, 2.84 µM (inactive); with MDA-MB-231, 2.73 µM (inactive); in the assay with MDA-MB-435 it was 4.56 µM (inactive); in the assay on NCI-H226, 7.28 µM (inactive); with NCI-H460, 5.16 µM (inactive). For the same molecule, the GI50 in the assay with OVCAR-5 is 11.7 µM (inactive); in the assay on OVCAR-8 it was 3.3 µM (inactive); in the assay on RXF 393, 1.49 µM (inactive); in the assay on SNB-19 it was 18.4 µM (inactive); in the assay on SW-620, 3.35 µM (inactive); in the assay on TK-10, 6.27 µM (inactive). Moreover, the GI50 in the assay with U-251 is 3.73 µM (inactive).

Regarding `Cn1c(-c2ccccc2)cc(-c2ccc3c(c2)OCO3)c1-c1ccsc1`, the GI50 in the assay on 786-0, in the assay on BT-549, in the assay on COLO 205, in the assay on DU-145, in the assay on HCC 2998 and with HOP-92 was > 100 µM (inactive) throughout. The GI50 in the assay on HT-29, in the assay on Hs-578T, with MDA-MB-231, in the assay on MDA-MB-435, in the assay with NCI-H226 and with NCI-H460 was > 100 µM (inactive) throughout. Also, the GI50 in the assay on OVCAR-5, with OVCAR-8, with RXF 393, in the assay with SNB-19, in the assay with SW-620 and in the assay on TK-10 was > 100 µM (inactive) throughout. In addition, the GI50 with U-251 was > 100 µM (inactive).

Regarding `COC(=O)c1ccccc1C1CN=NC12Cc1cc(C)ccc1C2=O` (stereo not given), the GI50 was > 100 µM (inactive) in the assay with 786-0; > 100 µM (inactive) with BT-549; > 100 µM (inactive) in the assay with COLO 205; > 100 µM (inactive) with DU-145; > 100 µM (inactive) in the assay on HCC 2998; 43.2 µM (inactive) in the assay on HOP-92. Moreover, the GI50 was > 100 µM (inactive) in the assay on HT-29; 49 µM (inactive) in the assay on Hs-578T; 21.5 µM (inactive) in the assay on MDA-MB-231; 62.4 µM (inactive) in the assay on MDA-MB-435; > 100 µM (inactive) with NCI-H226; > 100 µM (inactive) in the assay on NCI-H460. Besides, the GI50 in the assay on OVCAR-5 is > 100 µM (inactive); in the assay on OVCAR-8, > 100 µM (inactive); with RXF 393, > 100 µM (inactive); in the assay with SNB-19 it was > 100 µM (inactive); with SW-620, > 100 µM (inactive); in the assay with TK-10 it was 16.6 µM (inactive). The GI50 with U-251 is > 100 µM (inactive).

With `CSc1nc(Cl)c2c(n1)Sc1nc3cc4c(cc3n1C2O)OCCO4` (stereo not given), the GI50 is 0.0336 µM (active) with 786-0; 0.489 µM (active) in the assay on BT-549; 0.0509 µM (active) in the assay with COLO 205; 0.124 µM (active) in the assay with DU-145; 0.318 µM (active) in the assay with HCC 2998; 0.875 µM (active) in the assay with HOP-92. For the same molecule, the GI50 was 0.0226 µM (active) with HT-29; 0.295 µM (active) with Hs-578T; 0.321 µM (active) in the assay with MDA-MB-231; 0.0158 µM (active) with MDA-MB-435; 0.276 µM (active) with NCI-H226; 0.0897 µM (active) in the assay on NCI-H460. The GI50 in the assay on OVCAR-5 is 4.03 µM (inactive); in the assay on OVCAR-8, 0.106 µM (active); in the assay on RXF 393, 0.354 µM (active); in the assay with SNB-19, 0.344 µM (active); with SW-620, 0.0153 µM (active); in the assay with TK-10 it was 0.962 µM (active). In the assay with U-251, the 50% growth inhibitory concentration (GI50) was 0.223 µM (active).

For the molecule `Nc1nc(O)c([I+]c2ccccc2)c(=O)[nH]1`, the GI50 in the assay on 786-0 was > 100 µM (inactive); with BT-549, 57.1 µM (inactive); in the assay on COLO 205 it was > 100 µM (inactive); in the assay on DU-145, > 100 µM (inactive); with HCC 2998, > 100 µM (inactive); with HOP-92, > 100 µM (inactive). Moreover, the GI50 in the assay with HT-29, with Hs-578T, with MDA-MB-231, with MDA-MB-435, in the assay with NCI-H226 and in the assay with NCI-H460 was > 100 µM (inactive) in each case. The GI50 in the assay with OVCAR-5, in the assay with OVCAR-8, in the assay on RXF 393, in the assay on SNB-19, in the assay on SW-620 and in the assay on TK-10 was > 100 µM (inactive) in each case. Also, in the assay with U-251, the GI50 is > 100 µM (inactive).

With `CCCCCCOc1ccc(C(=O)NOCc2ccccc2)cc1`, the GI50 in the assay on 786-0, in the assay with BT-549, with COLO 205, in the assay with DU-145, with HCC 2998 and in the assay with HOP-92 was > 100 µM (inactive) throughout. The GI50 with HT-29 was > 100 µM (inactive); in the assay with Hs-578T it was > 100 µM (inactive); in the assay with MDA-MB-231 it was > 100 µM (inactive); in the assay on MDA-MB-435, 41.3 µM (inactive); in the assay with NCI-H226 it was > 100 µM (inactive); in the assay on NCI-H460, > 100 µM (inactive). The GI50 with OVCAR-5, in the assay with OVCAR-8, with RXF 393, in the assay with SNB-19, in the assay with SW-620 and with TK-10 was > 100 µM (inactive) each time. Further, in the assay with U-251, the GI50 is > 100 µM (inactive).

As to `CN(C)CC1CCC/C(=C\c2ccc(N(C)C)cc2)C1=O` (stereo not given), the GI50 with 786-0 is 3.34 µM (inactive); in the assay on BT-549, 16.2 µM (inactive); with COLO 205, 2.58 µM (inactive); in the assay on DU-145, 17.1 µM (inactive); in the assay with HCC 2998 it was 15.9 µM (inactive); with HOP-92 it was 3.33 µM (inactive). The GI50 in the assay with HT-29 is 2 µM (inactive); in the assay with Hs-578T it was 3.58 µM (inactive); in the assay on MDA-MB-231, 4.78 µM (inactive); with MDA-MB-435 it was 5.4 µM (inactive); with NCI-H226, 18.2 µM (inactive); with NCI-H460 it was 12 µM (inactive). Moreover, the GI50 was 13.9 µM (inactive) with OVCAR-5; 5.45 µM (inactive) in the assay on OVCAR-8; 8.13 µM (inactive) with RXF 393; 17.7 µM (inactive) in the assay on SNB-19; 1.85 µM (inactive) with SW-620; 1.97 µM (inactive) in the assay with TK-10. For the same molecule, in the assay on U-251, the GI50 is 17 µM (inactive).
